Measured values reported in paper PMC12810351, “Structure-effect relationship of phenolic compounds on α-amylase inhibition studied by isothermal titration calorimetry” (Current Research in Food Science, 2025).
Read-outs that look alike come from different tables or passages of the source.

Assays:
[1] = target: T1, porcine pancreatic α-amylase (Sus scrofa, UniProt P00690); experiment: starch hydrolysis by α-amylase monitored by isothermal titration calorimetry (ITC); format: biochemical; details: for inhibition mechanism suggested by Kic/Kiu ratios: polyphenol standards
T1 sequence (P00690 16-511): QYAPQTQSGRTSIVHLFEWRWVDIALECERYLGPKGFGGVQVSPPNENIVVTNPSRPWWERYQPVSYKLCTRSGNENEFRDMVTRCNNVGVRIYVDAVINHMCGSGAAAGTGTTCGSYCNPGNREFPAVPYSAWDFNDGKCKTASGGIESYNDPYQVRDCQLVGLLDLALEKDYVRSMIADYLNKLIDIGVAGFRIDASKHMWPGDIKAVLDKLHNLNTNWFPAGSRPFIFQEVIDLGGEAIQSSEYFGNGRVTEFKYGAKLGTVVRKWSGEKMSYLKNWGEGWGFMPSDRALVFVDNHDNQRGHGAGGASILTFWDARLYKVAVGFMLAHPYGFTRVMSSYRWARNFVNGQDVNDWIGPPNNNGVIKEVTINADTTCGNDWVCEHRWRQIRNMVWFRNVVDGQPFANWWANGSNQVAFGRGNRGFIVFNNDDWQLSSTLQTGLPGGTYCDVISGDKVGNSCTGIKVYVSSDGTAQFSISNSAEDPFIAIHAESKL
Experimental: The amylase stock solution was diluted each day and stored during the day at 4 °C.
The experiments were conducted using an Affinity ITC LV instrument with a cell volume of 182 μL (TA Instruments, Eschborn, Germany). […] These controls were conducted to determine the optimal injection volume to achieve maximal velocity (vmax) (S11). […] Enzyme kinetic constants were determined at 310 K.
The heat released during starch conversion was continuously monitored, with calculations performed using Microsoft Excel® software. The enzymatic rate (v) is directly proportional to the measured thermal power (eq (1)).(1) v=dP/dt=1/Vcell·ΔRHapp·dQ/dt
The reaction enthalpy ( ΔRHapp ) is determined by integrating the heat peak over its entire duration, divided by the number of substrate molecules converted:(2) ΔRHapp=∫t=0∞dQ/dtdt/nS
(dQ/dt)max [%], ΔRHapp [%] und vmax [%] are calculated in relation to daily control.
The substrate concentration at time t ([S]t) is calculated according to eq (3).(3) [S]t=∫t∞dQ/dtdt/∫0∞dQ/dtdt·[S]t=0
Therefore, the thermogram contains all the required data for calculating inhibition constants. The maximal conversion rate vmax and the Michaelis-Menten constant Km are determined from control experiments conducted in the absence of an inhibitor. In the presence of an inhibitor [I] the apparent values of vmaxapp and Kmapp are obtained. Competitive inhibition (Kic, eq (5)) is due to the formation of an enzyme-inhibitor complex (EI), whereas uncompetitive inhibition (Kiu, eq (5)) occurs when an inhibitor binds to a […]:(5) Kic=vmaxapp/Kmapp·[I]/(vmax/Km)−(vmaxapp/Kmapp)Kiu=vmaxapp·[I]/vmax−vmaxapp
The IC50 value, a key pharmacological metric, is used to compare the potency of inhibitors. […] The conversion rate (v0) was calculated from the thermogram according to eq (1), and subsequently plotted against the […]

α-amylase [2] = target: α-amylase; parameters: method as in Kaeswurm et al. (2019); details: substrate GalG2CNP, CNP UV/Vis, ref Kaeswurm et al. (2019), cited from earlier work
α-amylase [3] = target: α-amylase; parameters: method as in Narita and Inouye (2011); details: substrate G2-pNP, pNP UV/Vis, ref Narita and Inouye (2011), cited from earlier work
α-amylase [4] = details: substrate starch, DNS UV/Vis, cited from earlier work; for Ki: read-out: Kic
α-amylase [5] = target: α-amylase; parameters: key to Kic [μM] / Kiu [μM] / IC50 [μM]: “–” no inhibition; details: substrate starch, PAHBAH UV/Vis, cited from earlier work
α-amylase [6] = target: α-amylase; parameters: method as in Zheng et al. (2020); details: substrate starch, D-glucose assay UV/Vis, ref Zheng et al. (2020), cited from earlier work
[7] = 100 μM polyphenol, relative to control, read-out: vmax [%]
[8] = calculated based on the mass concentration
[9] = calculated based on the mass concentration, read-out: IC50 [g/L] (converted)
[10] = calculated based on the mass concentration, read-out: Kic [g/L] (converted)
[11] = calculated based on the mass concentration, read-out: Kiu [g/L] (converted)
[12] = competitive inhibition constant, substrate starch, ITC, 100 μM polyphenol (EGCG 25 μM), read-out: Kic
[13] = substrate starch, ITC, calculated by eq (6), substrate concentration of 1 M (IC50 equivalent to Kiu), read-out: IC50*
[14] = uncompetitive inhibition constant, substrate starch, ITC, 100 μM polyphenol (EGCG 25 μM), read-out: Kiu
[15] = ref Souza Schmidt Gonçalves et al. (2010)
[16] = 100 μM polyphenol, 26 nM α-amylase, starch, 310 K, relative to control without inhibitor, read-out: (dQ/dt)max [%]

| Compound | remaining activity at 100 µM [1, 7] [%] | α (Kic/Kiu) [1, 8] | IC50 [1, 9] [µM] | Ki [1, 10] [µM] | Ki [1, 11] [µM] | Ki [1, 12] [µM] | inhibition mechanism suggested by Kic/Kiu ratios [1] | inhibition type ([1]; substrate starch, ITC) | IC50 [1, 13] [µM] | Ki [1, 14] [µM] | remaining activity at 100 µM [1, 16] [%] | other results |
| --- | --- | --- | --- | --- | --- | --- | --- | --- | --- | --- | --- | --- |
| O=C(/C=C/c1ccc(O)c(O)c1)O[C@@H]1C[C@](O)(C(=O)O)C[C@@H](O)[C@H]1O [CA, Chlorogenic acid] | 72 ± 6 | 0.70 ± 0.03 | 198 | 198 | 282 | 195 ± 68 | preferentially bind to the enzyme | mixed | 278 ± 100 | 279 ± 100 |  | remaining activity at 100 µM ([1]; read-out: (dQ/dt)max [%]): 77 ± 5%; IC50 (α-amylase [2]): 413 µM; Ki (α-amylase [2]; read-out: Kic): 406 µM; Ki (α-amylase [2]; read-out: Kiu): 413 µM; IC50 (α-amylase [3]): 400 µM; Ki (α-amylase [3]; read-out: Kic): 1120 µM; Ki (α-amylase [3]; read-out: Kiu): 270 µM; IC50 (α-amylase [4]; [15]): 3.9 µM |
| Oc1cc(O)c2c(c1)O[C@H](c1ccc(O)c(O)c1)[C@@H](O)C2 [CAT, (+)-catechin] |  | 0.75 ± 0.40 |  |  |  |  |  |  |  |  |  | IC50 [1, 8]: 120 ± 50 µg/mL; Kic [1, 8]: 0.10 ± 0.06 g/L; Kiu [1, 8]: 0.14 ± 0.06 g/L |
| OC[C@H]1O[C@@H](Oc2cc3c(O)cc(O)cc3[o+]c2-c2ccc(O)c(O)c2)[C@H](O)[C@@H](O)[C@@H]1O [CYD-3-glc, cyanidin-3-O-glucoside] | 65 ± 4 | 0.71 ± 0.05 |  | 156 | 223 | 143 ± 30 | preferentially bind to the enzyme | mixed | 200 ± 34 | 201 ± 34 | 74 ± 10 | IC50 (α-amylase [5]; ref Le et al. (2024)): 340 µM; Ki (α-amylase [5]; ref Le et al. (2024), read-out: Kic): 390 µM; Ki (α-amylase [5]; ref Le et al. (2024), read-out: Kiu): 210 µM; IC50 (α-amylase [4]; ref Akkarachiyasit et al., (2010)): 300 µM; IC50 (α-amylase [4]; ref Sui et al. (2016)): 240 µM; Ki (α-amylase [4]; ref Sui et al. (2016)): 140 µM |
| Oc1cc(O)c2c(c1)O[C@H](c1ccc(O)c(O)c1)[C@H](O)C2 [EC, (−)-epicatechin] | 78 ± 4 | 0.74 ± 0.10 | 482 | 379 | 517 | 253 ± 47 | preferentially bind to the enzyme |  | 385 ± 82 | 385 ± 82 | 82 ± 8 |  |
| COc1cc(/C=C/C(=O)O)ccc1O [FA, ferulic acid] | 95 ± 3 | 0.67 ± 0.30 |  | 1240 | 2370 | 1240 ± 235 |  | mixed | 2350 ± 1470 | 2360 ± 1480 | 94 ± 12 | IC50 (α-amylase [3]): 5450 µM; Ki (α-amylase [3]; read-out: Kic): 11200 µM; Ki (α-amylase [3]; read-out: Kiu): 4870 µM; IC50 (α-amylase [4]; ref Aleixandre et al. (2022)): > 5150 µM; IC50 (α-amylase [6]): 3200 µM; Ki (α-amylase [6]; read-out: Kic): 3400 µM; Ki (α-amylase [6]; read-out: Kiu): 3630 µM |
| Oc1cc(O)c2c(c1)O[C@H](c1ccc(O)c(O)c1)[C@H](O)[C@H]2c1c(O)cc(O)c2c1O[C@H](c1ccc(O)c(O)c1)[C@@H](O)C2 [PC B1, procyanidin B1] | 66 ± 9 | 0.71 ± 0.20 | 190 | 156 | 225 | 155 ± 79 |  |  | 219 ± 91 | 219 ± 91 | 66 ± 14 |  |
| Oc1cc(O)c2c(c1)O[C@H](c1ccc(O)c(O)c1)[C@H](O)[C@H]2c1c(O)cc(O)c2c1O[C@H](c1ccc(O)c(O)c1)[C@H](O)C2 [PC B2, procyanidin B2] | 62 ± 4 | 0.94 ± 0.13 | 121 | 121 | 121 | 177 ± 39 |  |  | 173 ± 26 | 173 ± 26 | 56 ± 4 | reversibility of inhibition (from ΔRHapp) ([1]; 100 μM polyphenol (EGCG 25 μM)): irreversible aggregation |
| Oc1cc(O)c2c(c1)O[C@H](c1ccc(O)c(O)c1)[C@H](O)[C@H]2c1c(O)cc(O)c2c1O[C@H](c1ccc(O)c(O)c1)[C@H](O)[C@H]2c1c(O)cc(O)c2c1O[C@H](c1ccc(O)c(O)c1)[C@H](O)C2 [PC C1, procyanidin C1] | 50 ± 4 | 0.90 ± 0.12 | 104 | 92.3 | 104 | 94 ± 26 |  |  | 103 ± 16 | 103 ± 16 | 44 ± 4 | reversibility of inhibition (from ΔRHapp) ([1]; 100 μM polyphenol (EGCG 25 μM)): irreversible aggregation |
| O=C(CCc1ccc(O)cc1)c1c(O)cc(O)cc1O[C@@H]1O[C@H](CO)[C@@H](O)[C@H](O)[C@H]1O [PHL, phlorizin] | 89 ± 7 | 0.76 ± 0.08 | 504 | 412 | 573 | 418 ± 127 |  | mixed | 572 ± 145 | 573 ± 145 | 83 ± 4 | IC50 (α-amylase [2]): 391 µM; Ki (α-amylase [2]; read-out: Kic): 151 µM; Ki (α-amylase [2]; read-out: Kiu): 391 µM; IC50 [μM] (α-amylase [5]; ref Li et al. (2019)): –; Kic [μM] (α-amylase [5]; ref Li et al. (2019)): –; Kiu [μM] (α-amylase [5]; ref Li et al. (2019)): – |
| O=c1c(O[C@@H]2O[C@H](CO)[C@@H](O)[C@H](O)[C@H]2O)c(-c2ccc(O)c(O)c2)oc2cc(O)cc(O)c12 [Q-3-glc, quercetin-3-O-glucoside] | 63 ± 4 | 0.65 ± 0.07 | 151 | 108 | 172 | 115 ± 16 | preferentially bind to the enzyme | mixed | 178 ± 28 | 179 ± 28 | 72 ± 9 | Ki (α-amylase [4]; ref Li et al. (2009)): 5.35 µM |
| C[C@@H]1O[C@@H](OC[C@H]2O[C@@H](Oc3c(-c4ccc(O)c(O)c4)oc4cc(O)cc(O)c4c3=O)[C@H](O)[C@@H](O)[C@@H]2O)[C@H](O)[C@H](O)[C@H]1O [rutin, quercetin-3-O-rutinoside] | 92 ± 4 | 0.28 ± 0.12 | 770 | 360 | 1560 | 354 ± 55 | preferentially bind to the enzyme | mixed | 1540 ± 855 | 1560 ± 872 | 90 ± 6 | Ki (α-amylase [4]; ref Li et al. (2009)): 8.96 µM; IC50 (α-amylase [4]; [15]): 1.2 µM |
